Laboratory results reported in US20210238170A1, “5,5-Difluoro- and 5-Fluoro-5-Methyl-C-Glycoside Derivatives Useful As Dual SGLT1 / SGLT2 Modulators” (Janssen Pharmaceutica NV, priority 2018, published 2021).

Columns and labels:
[1] = target: T1, human SGLT1 (Homo sapiens, UniProt P13866); experiment: SGLT1 in vitro assay: Na-dependent 14C-AMG uptake in CHO-K1 cells stably expressing human SGLT1; assay type: cell-based; conditions: CHO-K1 cells stably expressing human SGLT1, 14C-AMG uptake; for inhibition at 0.3 µM: read-out: SGLT1 % Inh @ 0.3 μM; for IC50: compounds of formula (I) where R0 is fluoro
T1 construct: expressed in transfected cells
T1 sequence (P13866 1-664): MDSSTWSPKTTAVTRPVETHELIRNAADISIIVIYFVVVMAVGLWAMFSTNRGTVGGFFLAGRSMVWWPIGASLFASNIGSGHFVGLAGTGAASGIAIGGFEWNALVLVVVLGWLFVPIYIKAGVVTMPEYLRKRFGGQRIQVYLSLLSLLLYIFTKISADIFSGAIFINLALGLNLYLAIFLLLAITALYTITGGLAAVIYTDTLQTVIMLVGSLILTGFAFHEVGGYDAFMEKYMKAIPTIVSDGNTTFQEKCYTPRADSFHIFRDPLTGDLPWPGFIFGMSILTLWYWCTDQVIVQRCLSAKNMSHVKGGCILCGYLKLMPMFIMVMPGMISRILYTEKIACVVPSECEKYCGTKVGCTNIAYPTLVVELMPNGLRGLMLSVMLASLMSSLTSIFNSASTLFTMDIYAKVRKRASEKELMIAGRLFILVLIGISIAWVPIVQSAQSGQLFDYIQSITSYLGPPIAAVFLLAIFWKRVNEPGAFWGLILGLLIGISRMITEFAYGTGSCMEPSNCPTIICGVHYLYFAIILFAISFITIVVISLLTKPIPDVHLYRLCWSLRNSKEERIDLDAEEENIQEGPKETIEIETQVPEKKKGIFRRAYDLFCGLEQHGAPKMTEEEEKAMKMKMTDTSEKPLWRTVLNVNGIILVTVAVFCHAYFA
Protocol: (§1) Biological Example 1: SGLT1 and SGLT2 In Vitro Assays
(§2) The ability of the compounds of formula (I) of the present invention to treat an SGLT-mediated condition was determined using the following procedures:
(§3) SGLT1 and SGLT2 were cloned in form of cDNA from human small intestine (Genbank M24847), and from human kidney (Genbank M95549), respectively. Subsequently, each full cDNA was subcloned into pcDNA with each construct's integrity verified through follow-on sequencing. To generate CHO-K1 cells that stably express human SGLT1 or human SGLT2, CHO-K1 cells were transfected using DMRIE-C reagent (Life Technologies, Gaithersburg, Md.). Transfected cells were then selected in the presence of 500 μg/ml of the Geneticin (G418 Cellgro Catalog No. 30234-CI)
(§4) Individual clones were then characterized using the following cell-based assay for sodium-dependent glucose transport:
(§5) Inhibition of SGLT1 and SGLT2 activity was assessed in CHO K1 cells stably expressing either human SGLT1 or SGLT2, using the SGLT specific glucose analog methyl-glucopyranoside (Sigma Catalog No. M-9376). Cells were plated (45,000 cells/well) in white wall 96-well plates (COSTAR, Cat #3903) for 24 hours in growth medium, then a final concentration of 10 mM Na-Butyrate (ALDRICH Cat #30341-0) was added. The cells were incubated for 24 hours. On the day of the assay, cells were rinsed and treated with test compounds (at concentrations of 0.001 μM to 10 μM) in assay buffer (50 mM HEPES, 20 mM Tris base, 5 mM KCl, 1 mM MgCl2, 1 mM CaCl2 and 137 mM NaCl, pH 7.4) for 10 minutes. Cells were then incubated with ^14C-a-methyl-d-glucopyranoside (AMG, Amersham Catalog No. CFB 76), using 0.07 μCi per well in 500 µM AMG final concentration. The cells were incubated for 2 hours at 37° C. with 5% CO2 and washed two times with ice-cold Phosphate Buffer Solution (CELLGRO Catalog No. 21030-CV). The cells were then solubilized by adding 60 μl of MICROSCINT™ 20 and the Na-dependent ^14C-AMG uptake was quantified by measuring radioactivity. Plates were counted in a TopCount (Packard, Meriden, Conn.)
(§6) Representative compounds of the present invention were tested according to the procedures as described in Biological Example 1 and 2 above, with results as listed in Table 5, below. Results are reported as the %-inhibition or IC50 value. Variability for the functional assay was typically within 20%.

[2] = target: T2, human SGLT2 (Homo sapiens, UniProt P31639); experiment: SGLT2 in vitro assay: Na-dependent 14C-AMG uptake in CHO-K1 cells stably expressing human SGLT2; assay type: cell-based; conditions: CHO-K1 cells stably expressing human SGLT2, 14C-AMG uptake; for inhibition at 0.3 µM: read-out: SGLT2 % Inh @ 0.3 μM; for IC50: compounds of formula (I) where R0 is fluoro
T2 construct: expressed in transfected cells
T2 sequence (P31639 1-672): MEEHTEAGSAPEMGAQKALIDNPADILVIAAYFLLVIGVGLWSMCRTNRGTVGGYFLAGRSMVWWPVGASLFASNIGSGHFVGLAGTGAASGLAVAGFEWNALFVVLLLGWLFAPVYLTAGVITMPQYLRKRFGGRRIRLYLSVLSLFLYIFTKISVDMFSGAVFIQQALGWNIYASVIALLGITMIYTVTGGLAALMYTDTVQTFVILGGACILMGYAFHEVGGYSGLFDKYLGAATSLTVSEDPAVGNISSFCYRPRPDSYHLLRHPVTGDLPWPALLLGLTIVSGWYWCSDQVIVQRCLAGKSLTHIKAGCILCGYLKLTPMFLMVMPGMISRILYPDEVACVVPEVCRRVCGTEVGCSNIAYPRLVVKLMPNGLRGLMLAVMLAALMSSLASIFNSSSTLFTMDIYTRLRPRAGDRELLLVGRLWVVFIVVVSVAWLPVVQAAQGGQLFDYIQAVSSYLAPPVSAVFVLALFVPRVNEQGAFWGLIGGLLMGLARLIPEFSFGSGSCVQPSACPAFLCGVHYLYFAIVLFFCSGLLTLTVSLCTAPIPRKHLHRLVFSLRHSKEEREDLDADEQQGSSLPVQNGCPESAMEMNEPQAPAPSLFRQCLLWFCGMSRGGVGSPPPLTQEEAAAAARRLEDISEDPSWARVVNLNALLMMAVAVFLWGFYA
Protocol: as §1, §2, §3, §4, §5, §6

SMILES | inhibition at 0.3 µM [1] [%] | IC50 [1] [µM] | inhibition at 0.3 µM [2] [%] | IC50 [2] [µM] | SGLT1 % Inh @ 0.3 μM [1] [%] | SGLT2 % Inh @ 0.3 μM [2] [%]
Cc1cc(OCC#N)c([C@@H]2O[C@H](CO)C(F)(F)[C@H](O)[C@H]2O)cc1Cc1cc2ccccc2s1 [Compound 40, 2-[4-(benzothiophen-2-ylmethyl)-2-[(2S,3R,4R,6R)-5,5-difluoro-3,4-dihydroxy-6-(hydroxymethyl)tetrahydropyran-2-yl]-5-methyl-phenoxy]acetonitrile] | 54 | 0.176 | 85.4 | 0.0035 |  | 
CCOc1cc(C)c(Cc2cc3ccccc3s2)cc1[C@@H]1O[C@H](CO)C(F)(F)[C@H](O)[C@H]1O [Compound 41] |  |  |  |  | 5.8 | 85.4
Cc1cc(OC(C)C)c([C@@H]2O[C@H](CO)C(F)(F)[C@H](O)[C@H]2O)cc1Cc1cc2ccccc2s1 [Compound 42] |  |  |  |  | 8.9 | 74.3
OC[C@H]1O[C@@H](c2cc(Cc3ccc4c(c3)OCCO4)c(Cl)cc2O)[C@H](O)[C@@H](O)C1(F)F [Compound 45, (2S,3R,4R,6R)-2-[4-chloro-5-(2,3-dihydro-1,4-benzodioxin-6-ylmethyl)-2-hydroxy-phenyl]-5,5-difluoro-6-(hydroxymethyl)tetrahydropyran-3,4-diol] | 81.7 | 0.049 | 82 | 0.0014 |  | 
OC[C@H]1O[C@@H](c2cc(Cc3ccc([C@@H]4CCOC4)cc3)c(Cl)cc2O)[C@H](O)[C@@H](O)C1(F)F [Compound 46] |  |  |  |  | 18.4 | 89.0
CCOc1ccc(Cc2cc([C@@H]3O[C@H](CO)C(F)(F)[C@H](O)[C@H]3O)c(O)cc2C)cc1 [Compound 47, (2S,3R,4R,6R)-2-(5-(4-ethoxybenzyl)-2-hydroxy-4-methylphenyl)-5,5-difluoro-6-(hydroxymethyl)tetrahydro-2H-pyran-3,4-diol] | 47.9 | 0.25 | 61.2 | 0.0018 |  | 
COc1cc(Cl)c(Cc2ccc3c(c2)OCCO3)cc1[C@@H]1O[C@H](CO)C(F)(F)[C@H](O)[C@H]1O [Compound 48, (2S,3R,4R,6R)-2-[4-chloro-5-(2,3-dihydro-1,4-benzodioxin-6-ylmethyl)-2-methoxy-phenyl]-5,5-difluoro-6-(hydroxymethyl)tetrahydropyran-3,4-diol] | 36.5 |  | 78.1 |  |  | 
CCOc1ccc(Cc2cc([C@@H]3O[C@H](CO)C(F)(F)[C@H](O)[C@H]3O)c(OC)cc2C)cc1 [Compound 49] |  |  |  |  | 23.2 | 79.2
COc1cc(Cl)c(Cc2ccc([C@@H]3CCOC3)cc2)cc1[C@@H]1O[C@H](CO)C(F)(F)[C@H](O)[C@H]1O [Compound 50] |  |  |  |  | 20.4 | 84.4
N#CCOc1cc(Cl)c(Cc2cc3ccccc3s2)cc1[C@@H]1O[C@H](CO)C(F)(F)[C@H](O)[C@H]1O [Compound 51] |  |  |  |  | 30.8 | 82.0
Cc1cc(O)c([C@@H]2O[C@H](CO)C(F)(F)[C@H](O)[C@H]2O)cc1Cc1cc2cc(F)ccc2s1 [Compound 52] | 41.3 | 0.229 | 81.2 | 0.019 |  | 
COc1cc(C)c(Cc2cc3cc(F)ccc3s2)cc1[C@@H]1O[C@H](CO)C(F)(F)[C@H](O)[C@H]1O [Compound 53] |  |  |  |  | 0.0 | 87.1
COc1cc(O)c([C@@H]2O[C@H](CO)C(F)(F)[C@H](O)[C@H]2O)cc1Cc1ccc2c(c1)OCCO2 [Compound 54, (2S,3R,4R,6R)-2-[5-(2,3-dihydro-1,4-benzodioxin-6-ylmethyl)-2-hydroxy-4-methoxy-phenyl]-5,5-difluoro-6-(hydroxymethyl)tetrahydropyran-3,4-diol] | 41.8 | 0.895 | 52.8 | 0.0263 |  | 
COc1cc(OC)c([C@@H]2O[C@H](CO)C(F)(F)[C@H](O)[C@H]2O)cc1Cc1ccc2c(c1)OCCO2 [Compound 55, (2S,3R,4R,6R)-2-[5-(2,3-dihydro-1,4-benzodioxin-6-ylmethyl)-2,4-dimethoxy-phenyl]-5,5-difluoro-6-(hydroxymethyl)tetrahydropyran-3,4-diol] | 15.8 |  | 84.2 |  |  | 
Cc1cc(O)c([C@@H]2O[C@H](CO)C(F)(F)[C@H](O)[C@H]2O)cc1Cc1ccc2c(c1)OCCO2 [Compound 56, (2S,3R,4R,6R)-2-(5-((2,3-dihydrobenzo[b][1,4]dioxin-6-yl)methyl)-2-hydroxy-4-methylphenyl)-5,5-difluoro-6-(hydroxymethyl)tetrahydro-2H-pyran-3,4-diol] | 78.3 | 0.065 | 93 | 0.002 |  | 
CCc1ccc(Cc2cc([C@@H]3O[C@H](CO)C(F)(F)[C@H](O)[C@H]3O)cc3c2OCC3)cc1 [Compound 58] |  |  |  |  | 36.8 | 81.9
Cc1c(Cc2cc3ccccc3s2)cc([C@@H]2O[C@H](CO)C(F)(F)[C@H](O)[C@H]2O)c(O)c1C [Compound 60, (2S,3R,4R,6R)-2-(5-(benzo[b]thiophen-2-ylmethyl)-2-hydroxy-3,4-dimethylphenyl)-5,5-difluoro-6-(hydroxymethyl)tetrahydro-2H-pyran-3,4-diol] | 83.4 | 0.088 | 91.1 | 0.0122 |  | 
COc1cc(O)c([C@@H]2O[C@H](CO)C(F)(F)[C@H](O)[C@H]2O)cc1Cc1ccc2c(c1)CCO2 [Compound 62, (2S,3R,4R,6R)-2-[5-(2,3-dihydrobenzofuran-5-ylmethyl)-2-hydroxy-4-methoxy-phenyl]-5,5-difluoro-6-(hydroxymethyl)tetrahydropyran-3,4-diol] | 40.9 | 0.708 | 79.6 | 0.0173 |  | 
COC(=O)N1CCc2sc(Cc3cc([C@@H]4O[C@H](CO)C(F)(F)[C@H](O)[C@H]4O)c(O)cc3Cl)cc2C1 [Compound 64] |  |  |  |  | 6.2 | 67.1
